Results: PubChem BioAssay (NCI)
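Method: 48-hour compound exposure of cells in 96-well plates, five concentrations, linear interpolation of endpoints. TGI denotes the concentration required for complete inhibition of growth.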

Legend:
Assay in all cases: NCI tumour cell line growth inhibition, 48 h
[1] = system: RXF 393 renal
[2] = system: K-562 leukemia
[3] = system: NCI-H23 lung
[4] = system: HCC-2998 colon
[5] = system: NCI-H226 lung
[6] = system: IGROV1 ovarian
[7] = system: OVCAR-4 ovarian
[8] = system: A498 renal
[9] = system: CAKI-1 renal
[10] = system: M14 melanoma
[11] = system: LXFL 529 NSCLC
[12] = system: SF-539 CNS
[13] = system: DMS 273 small cell lung
[14] = system: SF-295 CNS
[15] = system: CCRF-CEM leukemia
[16] = system: SK-OV-3 ovarian
[17] = system: SW-620 colon
[18] = system: UACC-257 melanoma
[19] = system: SK-MEL-2 melanoma
[20] = system: U251 CNS
[21] = system: OVCAR-5 ovarian
[22] = system: ACHN renal
[23] = system: SK-MEL-28 melanoma
[24] = system: LOX IMVI melanoma
[25] = system: SNB-19 CNS
[26] = system: DLD-1 colon
[27] = system: SNB-78 CNS
[28] = system: HOP-18 NSCLC
[29] = system: OVCAR-3 ovarian
[30] = system: A549 NSCLC
[31] = system: DMS 114 small cell lung
[32] = system: HCT-116 colon
[33] = system: KM20L2 colon
[34] = system: HCT-15 colon
[35] = system: HT29 colon
[36] = system: KM12 colon
[37] = system: UACC-62 melanoma
[38] = system: SK-MEL-5 melanoma
[39] = system: XF 498 CNS
[40] = system: MOLT-4 leukemia
[41] = system: SN12C renal
[42] = system: HOP-92 NSCLC
[43] = system: 786-0 renal
[44] = system: TK-10 renal
[45] = system: RPMI-8226 leukemia
[46] = system: RXF-631 renal
[47] = system: COLO 205 colon
[48] = system: HL-60(TB) leukemia
[49] = system: OVCAR-8 ovarian
[50] = system: EKVX NSCLC
[51] = system: MALME-3M melanoma
[52] = system: SR leukemia
[53] = system: NCI-H460 lung
[54] = system: UO-31 renal
[55] = system: HOP-62 NSCLC
[56] = system: M19-MEL melanoma
[57] = system: SNB-75 CNS

SMILES: COc1c(I)c(OC)c2c(c1I)O[C@@H]1OCC[C@H]21
- TGI [1]: 72.4 µM
- TGI [2]: > 100 µM
- TGI [3]: > 100 µM
- TGI [4]: 78.6 µM
- TGI [5]: > 100 µM
- TGI [6]: > 100 µM
- TGI [7]: 84.6 µM
- TGI [8]: 86 µM
- TGI [9]: 46.1 µM
- TGI [10]: 50.5 µM
- TGI [11]: 63.7 µM
- TGI [12]: > 100 µM
- TGI [13]: 56.5 µM
- TGI [14]: > 100 µM
- TGI [15]: > 100 µM
- TGI [16]: > 100 µM
- TGI [17]: > 100 µM
- TGI [18]: 67.1 µM
- TGI [19]: 41.2 µM
- TGI [20]: > 100 µM
- TGI [21]: > 100 µM
- TGI [22]: > 100 µM
- TGI [23]: 97 µM
- TGI [24]: > 100 µM
- TGI [25]: > 100 µM
- TGI [26]: > 100 µM
- TGI [27]: > 100 µM
- TGI [28]: 81 µM
- TGI [29]: 91.7 µM
- TGI [30]: > 100 µM
- TGI [31]: 70.5 µM
- TGI [32]: > 100 µM
- TGI [33]: > 100 µM
- TGI [34]: > 100 µM
- TGI [35]: > 100 µM
- TGI [36]: 82.6 µM
- TGI [37]: > 100 µM
- TGI [38]: 27.2 µM
- TGI [39]: 66.4 µM
- TGI [40]: 54.4 µM
- TGI [41]: > 100 µM
- TGI [42]: 67.1 µM
- TGI [43]: > 100 µM
- TGI [44]: > 100 µM
- TGI [45]: > 100 µM
- TGI [46]: > 100 µM
- TGI [47]: 57.8 µM
- TGI [48]: 55.6 µM
- TGI [49]: > 100 µM
- TGI [50]: > 100 µM
- TGI [51]: 73.4 µM
- TGI [52]: 45.2 µM
- TGI [53]: 56.2 µM
- TGI [54]: 66.3 µM
- TGI [55]: > 100 µM
- TGI [56]: 57.7 µM
- TGI [57]: 82.9 µM
